Earlier results, collected in US9434994B2, “Methods for prediction of clinical outcome to epidermal growth factor receptor inhibitors by non-small cell lung cancer patients” (The Regents of the University of Colorado, a body corporate, priority 2004, dated 2016).

System: advanced NSCLC patients
Conditions: cited from earlier work
[1] = unselected gefitinib treated NSCLC patients

COc1cc2ncnc(Nc3ccc(F)c(Cl)c3)c2cc1OCCCN1CCOCC1 [gefitinib]
stable disease rates (NSCLC patients treated with gefitinib): about 30%
disease stabilization and symptomatic improvement (advanced disease progressing after standard therapies): about 40%
Objective Response [1]: up to 18%
symptomatic improvement [1]: 40%
